Results on 1 molecule are retold here after US7642261B2, “Use of 1-[4-(5-cyanoindol-3-yl)butyl]-4-(2-carbamoyl-benzofuran-5-yl)-piperazine and its physiologically acceptable salts” (Merck Patent GmbH, priority 2002, dated 2010).

Assay type in all cases: in vivo
In assay [1] the test system is aged rats. Description: Morris Water Maze in aged rats. To be noted: old rats, tested at day 7, untreated old rats 95 sec, vehicle treated young rats 76 sec. From the text: (§1) Typical models for dementia, Alzheimer's disease and multi-infarct are the Passive Avoidance test in rats [S. D. Glick and B. Zimmerberg, Behav. Biol., 1972, 7: 245-254; D. K. Rush, Behav. Neural Biol., 1988, 50: 255-274] and the testing of memory functions in the Morris Water Maze in aged rats [R. Morris, J. Neurosci. Methods, 1984, 11: 47-60, F. H. Gage et al. Neurobiol. Aging. 1984, 5: 43-48].
The Morris Water Maze consists of a circular water tank (150 cm in diameter) filled with water with an escape platform (15 cm in diameter) 18 cm from the periphery beneath the surface of the water. The water is made opaque rendering the platform invisible. Rats placed in the tank swim around and find the hidden platform accidently after a certain time (latency), and the latency to find the platform is taken as measure. When given further training session to find the platform, rats show reduced latencies from day to day, i.e. remember (learn) the location of the platform. But compared to young rats, aged rats perform less well in learning over days reflecting impaired learning capacity. Drugs effective for dementia and particularly Alzheimers disease improve the earning capacity of aged rats.
1-[4-(5-cyanoindol-3-yl)butyl]-4-(2-carbamoyl-benzofuran-5-yl)-piperazine hydrochloride is administered to old rats at oral doses of 1 and 3 mg/kg every day. […]

A short description of assay [2]: Development of body weight, dogs. From the text: Thus, differential effects on body weight indicating therapeutic efficacy in either obesity or anorexia depending on the dose range used are evident.
Assay [3] deals with rats. Description: Passive Avoidance test with scopolamine (model for dementia). To be noted: 10 mg/kg p.o., compared to untreated rats.
From the text: as §1
For the Passive Avoidance test, the apparatus is a runway separated from a dark compartment by a small door. The amnestic drug scopolamine is administered before the animal is submitted to an aquisition trial: the rat is placed on the entry of the runway opposite to the dark compartment, the latency to enter the dark compartment is recorded, and once the rat has entered the dark compartment, the door is closed and a foot schock is administered via the gridfloor. A retention trial is performed 48 h later identical to the aquisition trial (without scopolamine) and the latency to enter the dark compartment recorded again. […]

Assay [4] deals with rats. The experiment in a line: Elevated Plus Maze (model for agoraphobia), rats. To be noted: 10 mg/kg p.o., 3 min test period. As to the method: A typical model for Agoraphobia is named Elevated Plus Maze according to S. Pellow, P. Chopin, S. E. File, M. Briley, J. Neurosci. Meth., 1985,14: 145-167.
The apparatus consists of an X-shaped platform elevated from the floor, with two “open” unprotected arms and two “closed” protected arms, with animals having free access to both arms. The rat or mouse is placed in the centre of the arms, and the number of entires made and the time spent on the open arms is measured in a 3 min test period. Normal animals have very low basal levels, i.e. avoid entering the open arms and stay only a for a very brief period on open arms.
In rats, a dose of 10 mg/kg p.o. increased number of entries by 56% and time spent on open arms by 76%.

Assay [5] is described as follows: Intradermal formalin test. To be noted: 10 mg/kg p.o. As to the method:
Rapid procedures to test pain-relieving properties of drugs are the abdominal constriction (writhing) test according to E. Siegmund et all., Proc. Soc. Exp. Biol. Med. 1957, 95: 729-731 and the intradermal formalin test according to S. Hunskaar et al., J. Neurosci. Meth. 1985, 14: 69-76. For example, 1-[4-(5-cyanoindol-3-y1)butyl]-4-(2-carbamoyl-benzofuran-5-yl)-piperazine hydrochloride at 30 mg/kg p.c. reduced abdominal contrictions by 82%, and 10 mg/kg p.o. reduced the formalin-induced pain response by 79%.

The test system of assay [6] is rats. Description: Models for anxiety associated with posttraumatic stress (cat stressor; hole board, elevated plus maze, acoustic startle). Conditions: given after (acute treatment) and before (prophylactic treatment) the cat stressor. The source says:
Animal models of anxiety associated with posttraumatic stress in rats utilize the long-lasting behavioural changes induced by exposure to a native stressor. The therapeutic effects of a compound effective for the acute treatment of anxiety associated with posttraumatic stress are modelled by administration of the compound after exposure to the stressor. The therapeutic effects of a compound effective for the prophylactic treatment of anxiety associated with posttraumatic stress are modelled by administration of the compound before exposure to the stressor. Amongst the several behavioral test procedures, the following is most validated [R. E. Adamec and T. Shallow, Physiology Behavior, 1993, 54: 101-109; R. E. Adamec et al., Behav. Neurosci. 1997, 111: 435-449]. […] The hole board consists of a box (60 cm×60 cm) with four evenly spaced holes; the number of poking its head into a hole is counted for 5 minutes. […] The rat is placed in the centre of the arms, and the frequency of attempts to enter an open arm (risk assessment) as well as the time spent on the open and closed arms are measured. In the acoustic startle test, the rat is placed in a plexiglass cylinder, and a series of 20 white noise bursts of 120 dB out of a background noise of 60 dB is applied, and the latency to and the peak startle amplitude are measured. […]

As for `Cl.N#Cc1ccc2[nH]cc(CCCCN3CCN(c4ccc5oc(C(N)=O)cc5c4)CC3)c2c1` [1-[4-(5-cyanoindol-3-yl)butyl]-4-(2-carbamoyl-benzofuran-5-yl)-piperazine hydrochloride], the “latency to find the platform in the first attempt” value in assay [1] (oral 1 mg/kg every day) amounted to 77 s. The “latency to find the platform in the first attempt” value in assay [1] (oral 3 mg/kg every day) worked out at 73 s. In addition, the “development of body weight” value in assay [2] is recorded as “reduced development of body weight”. In addition, the “increase of latency to enter the dark compartment in the first retention trial” value in assay [3] is recorded as 78%. In addition, in assay [4], the “increase of number of entries on open arms” value is 56% and the “increase of time spent on open arms” value amounted to 76%. Moreover, the “reduction of formalin-induced pain response” value in assay [5] is on record as 79%. Besides, in assay [6], the “effect in models for anxiety associated with posttraumatic stress” value is reported as “effective”.
